Assays:
SIK(h) = SIK(h) (Homo sapiens, UniProt P57059); experiment: Protein kinase inhibition assay; format: biochemical; details: read-out: percent residual activity of SIK(h)
Description: (§1) Certain compounds were tested for activity in protein kinase inhibition assays. All substrates were dissolved and diluted to working stocks in de-ionized water, apart from histone H1 (10× working stock in 20 mM MOPS pH 7.0), PDKtide (10× working stock in 50 mM Tris pH 7.0) ATF2 (which is typically stored at a 20× working stock in 50 mM Tris pH 7.5, 150 mM NaCl, 0.1 mM EGTA, 0.03% Brij-35, 50% glycerol, 1 mM benzamidine, 0.2 mM PMSF and 0.1% R-mercaptoethanol), KKLNRTLSFAEPG (SEQ ID NO:203) and RRRLSFAEPG (SEQ ID NO:204) (50 mM HEPES pH 7.4) and GGEEEEYFELVKKKK (SEQ ID NO:205) (20 mM MOPS pH 7.0). All kinases were pre-diluted to a 10× working concentration prior to addition into the assay. The composition of the dilution buffer for each kinase is detailed below.

PASK(h) = PASK(h) (Homo sapiens, UniProt Q96RG2); experiment: Protein kinase inhibition assay; format: biochemical; details: for remaining activity at 2.5 µM: read-out: percent residual activity of PASK(h)
Sequence of PASK(h) (Q96RG2 whole entry): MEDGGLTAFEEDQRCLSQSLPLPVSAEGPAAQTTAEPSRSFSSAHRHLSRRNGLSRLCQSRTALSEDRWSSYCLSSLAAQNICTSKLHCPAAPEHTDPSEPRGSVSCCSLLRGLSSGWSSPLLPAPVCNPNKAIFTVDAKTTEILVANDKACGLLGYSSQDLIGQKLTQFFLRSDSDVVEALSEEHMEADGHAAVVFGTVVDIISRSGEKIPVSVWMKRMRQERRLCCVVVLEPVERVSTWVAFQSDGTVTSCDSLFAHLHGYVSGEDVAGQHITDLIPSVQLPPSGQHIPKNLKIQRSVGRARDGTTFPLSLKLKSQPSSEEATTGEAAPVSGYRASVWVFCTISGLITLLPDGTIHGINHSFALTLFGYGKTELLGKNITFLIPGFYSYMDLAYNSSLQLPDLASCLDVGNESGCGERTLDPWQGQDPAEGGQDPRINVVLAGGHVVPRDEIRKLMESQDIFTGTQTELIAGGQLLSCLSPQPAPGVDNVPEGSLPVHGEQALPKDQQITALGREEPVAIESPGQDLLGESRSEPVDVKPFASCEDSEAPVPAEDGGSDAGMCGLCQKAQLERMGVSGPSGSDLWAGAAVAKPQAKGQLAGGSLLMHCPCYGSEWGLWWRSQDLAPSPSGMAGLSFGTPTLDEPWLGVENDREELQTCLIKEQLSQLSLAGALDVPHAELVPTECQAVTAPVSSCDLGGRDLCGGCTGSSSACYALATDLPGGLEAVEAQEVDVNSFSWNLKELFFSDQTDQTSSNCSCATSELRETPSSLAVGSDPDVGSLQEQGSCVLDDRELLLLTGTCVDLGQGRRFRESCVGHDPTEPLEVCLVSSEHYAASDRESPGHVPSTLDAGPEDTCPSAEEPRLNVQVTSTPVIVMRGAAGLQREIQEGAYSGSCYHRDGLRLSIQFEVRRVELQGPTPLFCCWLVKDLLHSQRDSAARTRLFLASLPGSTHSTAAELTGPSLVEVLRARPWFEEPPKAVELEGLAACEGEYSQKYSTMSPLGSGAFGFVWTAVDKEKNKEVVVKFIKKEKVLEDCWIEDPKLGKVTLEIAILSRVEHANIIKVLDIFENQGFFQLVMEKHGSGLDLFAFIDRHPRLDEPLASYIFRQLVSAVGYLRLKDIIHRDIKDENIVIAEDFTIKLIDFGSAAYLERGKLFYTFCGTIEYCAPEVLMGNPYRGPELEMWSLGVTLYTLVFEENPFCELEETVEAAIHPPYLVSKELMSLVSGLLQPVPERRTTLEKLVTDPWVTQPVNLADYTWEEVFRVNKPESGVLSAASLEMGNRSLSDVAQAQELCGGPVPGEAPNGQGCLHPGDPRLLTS
Description: as §1

MST3(h) = MST3(h) (Homo sapiens, UniProt Q9Y6E0); experiment: Protein kinase inhibition assay; format: biochemical; details: read-out: percent residual activity of MST3(h)
Sequence of MST3(h) (Q9Y6E0 whole entry): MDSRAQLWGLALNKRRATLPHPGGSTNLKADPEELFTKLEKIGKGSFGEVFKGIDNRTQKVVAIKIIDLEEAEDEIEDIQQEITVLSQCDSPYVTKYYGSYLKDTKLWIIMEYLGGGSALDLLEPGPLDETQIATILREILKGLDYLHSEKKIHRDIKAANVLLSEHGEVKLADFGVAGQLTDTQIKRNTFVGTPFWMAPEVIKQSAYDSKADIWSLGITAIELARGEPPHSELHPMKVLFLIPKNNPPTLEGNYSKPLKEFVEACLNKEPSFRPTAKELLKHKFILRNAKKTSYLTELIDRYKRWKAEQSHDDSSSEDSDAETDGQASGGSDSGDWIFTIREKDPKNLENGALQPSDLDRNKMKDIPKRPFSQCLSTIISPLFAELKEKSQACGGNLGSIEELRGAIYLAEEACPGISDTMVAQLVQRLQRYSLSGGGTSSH
Description: as §1

IRAK1(h) = IRAK1(h) (Homo sapiens, UniProt P51617); experiment: Protein kinase inhibition assay; format: biochemical; details: read-out: percent residual activity of IRAK1(h)
Sequence of IRAK1(h) (P51617 whole entry): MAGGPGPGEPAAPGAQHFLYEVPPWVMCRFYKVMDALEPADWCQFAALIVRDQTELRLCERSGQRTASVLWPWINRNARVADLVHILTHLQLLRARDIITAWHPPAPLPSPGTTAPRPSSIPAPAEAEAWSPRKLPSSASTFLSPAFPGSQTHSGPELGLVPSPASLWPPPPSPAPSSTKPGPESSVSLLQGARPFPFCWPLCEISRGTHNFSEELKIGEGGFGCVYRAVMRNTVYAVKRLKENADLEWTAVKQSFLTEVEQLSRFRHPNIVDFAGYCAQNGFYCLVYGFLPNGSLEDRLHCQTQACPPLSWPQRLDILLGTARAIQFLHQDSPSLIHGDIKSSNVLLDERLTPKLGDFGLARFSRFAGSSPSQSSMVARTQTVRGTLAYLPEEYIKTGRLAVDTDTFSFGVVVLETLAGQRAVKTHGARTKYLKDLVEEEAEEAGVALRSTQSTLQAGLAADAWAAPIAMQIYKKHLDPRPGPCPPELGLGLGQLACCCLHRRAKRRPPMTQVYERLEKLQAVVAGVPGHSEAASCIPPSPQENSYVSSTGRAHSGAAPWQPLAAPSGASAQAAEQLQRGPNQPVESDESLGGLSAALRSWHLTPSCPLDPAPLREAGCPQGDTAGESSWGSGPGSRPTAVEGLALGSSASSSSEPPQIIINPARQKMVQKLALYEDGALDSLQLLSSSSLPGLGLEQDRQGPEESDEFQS
Description: as §1

PKA(b) = PKA(b) (Bos taurus, UniProt P00517); experiment: Protein kinase inhibition assay; format: biochemical, bovine; details: read-out: percent residual activity of PKA(b)
Description: as §1
(§2) In a final reaction volume of 25 μl, PKA (b) (5-10 mU) is incubated with 8 mM MOPS pH 7.0, 0.2 mM EDTA, 30 μM LRRASLG (SEQ ID NO:209) (Kemptide), 10 mM MgAcetate and [y-33P-ATP] (specific activity approx. 500 cpm/pmol, concentration as required). The reaction is initiated by the addition of the MgATP mix. After incubation for 40 minutes at room temperature, the reaction is stopped by the addition of 5 μl of a 3% phosphoric acid solution. 10 μl of the reaction is then spotted onto a P30 filtermat and washed three times for 5 minutes in 50 mM phosphoric acid and once in methanol prior to drying and scintillation counting.

Ros(h) = Ros(h) (Homo sapiens, UniProt P08922); experiment: Protein kinase inhibition assay; format: biochemical; details: read-out: percent residual activity of Ros(h)
Description: as §1
In a final reaction volume of 25 μl, Ros (h) (5-10 mU) is incubated with 8 mM MOPS pH 7.0, 0.2 mM EDTA, 10 mM MnCl2, 250 μM KKKSPGEYVNIEFG (SEQ ID NO:207), 10 mM MgAcetate and [gamma-33P-ATP] (specific activity approx. 500 cpm/pmol, concentration as required). The reaction is initiated by the addition of the MgATP mix. After incubation for 40 minutes at room temperature, the reaction is stopped by the addition of 5 μl of a 3% phosphoric acid solution. […]

HCT116 cells = experiment: Total (nucleolar) RNA synthesis (3H-uridine incorporation); format: cell-based; parameters: 3H-uridine incorporation, time course: unit of the concentration uncertain
Description: Effects of compound A-1 and compound B-1 on DNA synthesis, RNA synthesis and protein synthesis were determined in HCT116 cells. HCT116 cells were plated overnight at 100,000 cells per mL. Next day cells were treated with increasing amounts of either compound A-1 or compound B-1 followed by one hour incubation with BrdU label (from a BrdU Cell proliferation Assay Kit, Calbiochem) to monitor DNA synthesis; […] of ^3H-uridine to monitor total RNA synthesis; […] of ^3H-methionine to monitor protein synthesis or plain media to monitor RNA Polymerase II-dependent RNA synthesis. DNA synthesis was assessed using a BrdU-ELISA (BrdU Cell proliferation Assay Kit, Calbiochem). To measure total RNA synthesis, total RNA from treated cells was isolated with a RNease kit (QIAGEN), levels of total RNA were assessed with Ribogreen reagent (Invitrogen) and the newly synthesized tritiated RNA was measured in a scintillation Counter (Perkin Elmer). To measure effects on protein synthesis, cells were lysed in a RIPA buffer, and total protein was precipitated with 10% TCA on a glass-filters. Newly synthesized tritiated protein was measured in a scintillation Counter (Perkin Elmer). Effects of drugs on […] RNA synthesis were assessed by monitoring levels of a c-myc mRNA, which has a relatively short half-life of approximately 30 minutes, by Taqman qRT-PCR (ABI).

PKD2(h) = PKD2(h) (Homo sapiens, UniProt Q9BZL6); experiment: Protein kinase inhibition assay; format: biochemical; details: read-out: percent residual activity of PKD2(h)
Sequence of PKD2(h) (Q9BZL6 whole entry): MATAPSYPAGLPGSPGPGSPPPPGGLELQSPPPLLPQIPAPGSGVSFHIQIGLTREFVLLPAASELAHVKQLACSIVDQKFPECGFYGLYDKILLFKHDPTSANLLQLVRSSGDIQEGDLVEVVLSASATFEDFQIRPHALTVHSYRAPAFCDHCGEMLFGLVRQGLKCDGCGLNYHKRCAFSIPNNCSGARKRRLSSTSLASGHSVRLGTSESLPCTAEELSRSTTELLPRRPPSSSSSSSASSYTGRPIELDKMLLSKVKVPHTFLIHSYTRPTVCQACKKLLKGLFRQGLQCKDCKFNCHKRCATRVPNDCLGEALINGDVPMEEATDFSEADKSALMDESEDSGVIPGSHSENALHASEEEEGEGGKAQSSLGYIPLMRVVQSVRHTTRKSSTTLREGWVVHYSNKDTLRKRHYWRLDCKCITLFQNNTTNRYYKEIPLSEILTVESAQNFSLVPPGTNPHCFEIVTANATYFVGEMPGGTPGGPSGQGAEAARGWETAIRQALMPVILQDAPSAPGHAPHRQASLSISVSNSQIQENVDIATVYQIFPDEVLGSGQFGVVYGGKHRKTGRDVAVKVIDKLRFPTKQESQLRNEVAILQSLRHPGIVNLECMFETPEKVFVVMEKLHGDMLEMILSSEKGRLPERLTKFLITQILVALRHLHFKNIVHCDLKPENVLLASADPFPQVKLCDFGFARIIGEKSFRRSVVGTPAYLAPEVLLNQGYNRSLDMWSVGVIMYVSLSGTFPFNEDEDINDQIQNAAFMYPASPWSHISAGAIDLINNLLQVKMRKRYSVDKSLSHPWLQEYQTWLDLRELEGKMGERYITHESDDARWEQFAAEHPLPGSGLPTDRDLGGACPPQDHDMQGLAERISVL
Description: as §1
In a final reaction volume of 25 μl, PKD2 (h) (5-10 mU) is incubated with 20 mM HEPES pH 7.4, 0.03% Triton X-100, 30 μM KKLNRTLSVA (SEQ ID NO:212) 10 mM MgAcetate and [gamma-33P-ATP] (specific activity approx. 500 cpm/pmol, concentration as required). The reaction is initiated by the addition of the MgATP mix. After incubation for 40 minutes at room temperature, the reaction is stopped by the addition of 5 μl of a 3% phosphoric acid solution. 10 μl of the reaction is then spotted onto a P30 filtermat and washed three times for 5 minutes in 75 mM phosphoric acid and once in methanol prior to drying and scintillation counting.

EGFR(L858R)(h) = EGFR(L858R)(h) (Homo sapiens, UniProt P00533, L858R); experiment: Protein kinase inhibition assay; format: biochemical; details: read-out: percent residual activity of EGFR(L858R)(h)
Sequence of EGFR(L858R)(h) (P00533 25-1210 L858R): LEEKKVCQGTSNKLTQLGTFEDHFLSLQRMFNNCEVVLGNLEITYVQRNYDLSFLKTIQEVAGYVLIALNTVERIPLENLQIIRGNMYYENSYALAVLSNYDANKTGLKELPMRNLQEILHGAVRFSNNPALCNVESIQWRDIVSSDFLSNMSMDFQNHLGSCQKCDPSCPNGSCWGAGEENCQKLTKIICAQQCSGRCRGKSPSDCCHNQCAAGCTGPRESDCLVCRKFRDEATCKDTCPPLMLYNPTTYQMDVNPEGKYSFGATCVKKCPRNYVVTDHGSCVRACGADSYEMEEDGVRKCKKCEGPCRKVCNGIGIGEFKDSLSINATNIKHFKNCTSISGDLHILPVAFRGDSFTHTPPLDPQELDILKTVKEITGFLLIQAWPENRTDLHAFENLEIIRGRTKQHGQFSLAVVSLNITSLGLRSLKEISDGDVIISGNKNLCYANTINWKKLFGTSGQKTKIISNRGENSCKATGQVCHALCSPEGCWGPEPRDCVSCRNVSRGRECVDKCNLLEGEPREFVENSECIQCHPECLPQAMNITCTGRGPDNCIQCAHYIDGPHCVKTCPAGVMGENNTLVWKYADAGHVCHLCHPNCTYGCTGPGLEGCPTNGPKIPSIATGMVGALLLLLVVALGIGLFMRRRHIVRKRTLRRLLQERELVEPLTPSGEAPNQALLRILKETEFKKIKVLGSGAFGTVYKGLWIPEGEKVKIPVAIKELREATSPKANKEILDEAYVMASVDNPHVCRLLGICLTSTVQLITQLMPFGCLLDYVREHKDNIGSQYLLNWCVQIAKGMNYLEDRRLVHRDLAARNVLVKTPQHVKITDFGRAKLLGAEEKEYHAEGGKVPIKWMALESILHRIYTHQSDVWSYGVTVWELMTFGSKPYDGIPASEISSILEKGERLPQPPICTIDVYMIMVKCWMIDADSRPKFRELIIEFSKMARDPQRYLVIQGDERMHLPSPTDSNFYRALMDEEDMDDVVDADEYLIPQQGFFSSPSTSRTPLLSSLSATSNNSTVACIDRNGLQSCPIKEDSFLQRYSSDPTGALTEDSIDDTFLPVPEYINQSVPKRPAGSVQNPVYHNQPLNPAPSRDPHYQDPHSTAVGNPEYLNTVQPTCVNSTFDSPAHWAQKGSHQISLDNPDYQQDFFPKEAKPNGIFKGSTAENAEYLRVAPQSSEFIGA
Description: as §1
as §2, with “μl, EGFR (L858R) (h)” for “μl, PKA (b)”, “EDTA, 0.1 mg/ml poly(Glu, Tyr) 4:1,” for “EDTA, 30 μM LRRASLG (SEQ ID NO:209) (Kemptide),”, “and [gamma-33P-ATP]” for “and [y-33P-ATP]”, “a Filtermat A” for “a P30 filtermat”, “in 75” for “in 50”

remaining activity at 2.5 µM (SIK(h)) | remaining activity at 2.5 µM (PASK(h)) | remaining activity at 2.5 µM (MST3(h)) | remaining activity at 2.5 µM (IRAK1(h)) | remaining activity at 2.5 µM (PKA(b)) | remaining activity at 2.5 µM (Ros(h)) | remaining activity at 2.5 µM (PKD2(h)) | remaining activity at 2.5 µM (EGFR(L858R)(h)) | inhibition at 2.5 µM (PASK(h)) | Compound | concentration that significantly reduced nucleolar RNA synthesis (HCT116 cells) | 3H-uridine incorporation, time course (HCT116 cells; 10 (unit uncertain) for 30 min) | 3H-uridine incorporation, time course (HCT116 cells; 3 (unit uncertain) for 15 min)
94% | 100% | 110% | 102% | 96% | 113% | 98% | 109% |  | CC(=O)N1CCN(c2ccc3c(=O)c(C(=O)NCCN4CCCC4)c4n(C)c5ccccc5n4c3n2)CC1 [Compound B-1] | 10 µM | substantially inhibited | 
79% | 10% | 45% | 86% | 99% | 115% | 79% | 113% | > 80% | CN1CCCC1CCNC(=O)c1cn2c3c(c(N4CCC(c5cnccn5)C4)c(F)cc3c1=O)Oc1cc3ccccc3cc1-2 (stereo not drawn) [Compound A-1] | 1 µM |  | substantially inhibited

Reference: patent US20070117770A1, “Human ribosomal DNA (rDNA) and ribosomal RNA (rRNA) nucleic acids and uses thereof” (Cylene Pharmaceuticals, Inc., priority 2005, published 2007)
